# What was measured:
# K562 cells [1] = test: Immunoblotting of CML signaling proteins; assay type: cell-based, human; conditions: 5 µM
# Method: K562 cells were plated at a concentration of 1–2 × 10^5 cells/mL in a 6-well plate. After 24 h of pre-incubation, BK124.1 or DMSO was added and cells were incubated for a specified time, after which cells were lysed with RIPA buffer (Sigma-Aldrich, St. Louis, MO, USA) and supplemented with c0mplete Protease Inhibitor (Roche, Basel, Switzerland) and PhosSTOP (Roche, Basel, Switzerland). Protein concentration was measured using Pierce BCA Protein Assay Kit (Thermo Fisher Scientific, Waltham, MA, USA) and adjusted to contain equal amount of protein (20 µg) in equal volume. Protein lysates were separated by SDS-PAGE electrophoresis (TGX StainFree, Bio-Rad, Hercules, CA, USA) and transferred onto the PVDF membranes (AppliChem GmbH ITW Reagents, Darmstadt, Germany). Membranes were blocked with 5% non-fat powdered milk, then incubated with primary antibodies overnight at 4 °C followed by HRP-conjugated antibodies (Supplementary Methods). Blots were developed using Clarity Western ECL Substrate and analyzed with ChemiDoc XRS+ (Bio-Rad, Hercules, CA, USA). Protein levels normalized to controls were determined using ImageJ software.
# K562 cells were plated at a concentration of 1.5 × 10^5 cells/mL in a 6-well plate. After 24 h pre-incubation, BK124.1 in DMSO was added and incubated for the specified time. Next, cytosolic and nuclear cell fractions were separated as described. […]
# K562 cells [2] = test: MTT viability test, K562; assay type: cell-based; conditions: Homo sapiens, K562; MTT, 48 h
# Method: CML cell line K562 CCL-243™ (BCR-ABL^+) was purchased from the ATCC® (Manassas, VA, USA). Cells were grown in RPMI 1640 medium containing HEPES (Biowest, Nuaillé, France) with 2 mM GlutaMAX (Gibco, Grand Island, NY, USA), supplemented with 10% fetal bovine serum (Sigma-Aldrich, St. Louis, MO, USA) and […] (Gibco, Grand Island, NY, USA) and 0.1 µM Vincristine (for K562-MDR1).
# Cells were seeded in 96-well plates; after 24 h, medium with the appropriate drug concentration was added to each well. After 48 h, Tetrazolium Bromide (Sigma-Aldrich, St. Louis, MO, USA) was added to each well for 2–3 h. After that, cells were lysed and formazan crystals were dissolved. Absorbance was read using an iMark Microplate absorbance reader (Bio-Rad, Hercules, CA, USA). Results were calculated relative to cells treated with DMSO only. […]
# Cells were seeded in 96-well plates at 7 × 10^3 cells/well in 50 µL of complete medium (for K562 or K562-MDR1) or at 50 × 10^3 cells/well in 50 µL of complete medium (CD34+ cells). After 24 hours, 50 µL of medium with the appropriate drug concentration was added to each well. The final DMSO concentration per well was 1% for K562 and K562-MDR1 and 0.1% for CD34+ cells. After 48 hours, 20 µL of Tetrazolium Bromide (Sigma-Aldrich, St. Louis, MO, USA) at a concentration of 5 mg/mL was added to each well. Cells were incubated for 2-3 hours in a cell culture incubator, and then 10% SDS with 1% HCl was added to each well to lyse the cells and dissolve the formazan crystals. Plates were […]
# K562 cells [3] = test: K562 xenogeneic mouse model, tumor growth; assay type: in vivo, NSG mice; conditions: for Tumor weights: mean ± SD, N=4, tumor growth control 9.2±2.1
# Method: Statistical analysis was performed using GraphPad Prism version 9.1.0. All in vitro experiments were performed in at least triplicate biological replicates and statistical results are expressed as mean ± standard deviation (SD). Statistical data of animal experiments are expressed as mean ± standard error of the mean (SEM). For experiments involving patients, the normality of the distribution was checked using the Shapiro–Wilk test and the statistical analysis was performed using one-way ANOVA with Dunnett’s post-test * p < 0.05, ** […], *** 0.001 > p > 0.0001, **** p < 0.0001.
# Table S3. […] Control and
# IP, intraperitoneal administration; O, orally
smiles,measurement,setting,value
"CCC12C(=O)C(CC)(C(c3ccccc3)=C1c1ccccc1)C1C(=O)N(CC(O)CNC(C)C)C(=O)C12 (stereo not shown) [BK124.1, 4-[2-hydroxy-3-(propan-2-ylamino)propyl]-1,7-diethyl-8,9-diphenyl-4-azatricyclo [5.2.1.02,6]dec-8-ene-3,5,10-trione]","Level of BCR-ABL1, STAT5, AKT, mTOR and NF-κB proteins",K562 cells [1]; first changes after 4 and 8 h,decrease in the level
same,Level of FOXO3A and p21waf1/cip1 proteins,"K562 cells [1]; from 4 h, maximum after 8 h, mainly nuclear fraction",increase in the level
same,IC50,K562 cells [2],2500 nM
same,Tumor weights,K562 cells [3]; 20 mg/kg IP daily 14 days,1.6 ± 1.6 g
same,Tumor weights,K562 cells [3]; 30 mg/kg IP daily 14 days,1.9 ± 1.8 g
same,Tumor growth versus control groups,"K562 cells [3]; BK124.1 20 or 30 mg/kg IP, imatinib 100 mg/kg orally, hydroxyurea 500 mg/kg IP, 1 x daily",effectively inhibited
same,Tumor volume,"K562 cells [3]; prolonged treatment (days 4-17), IP 20 or 30 mg/kg, comparable with hydroxyurea or imatinib",significant reduction in tumor volume

# Reference: publication PMC9332833 (Cancers, 2022)
